Legend:
BN rats [1] = assay: Antigen-induced bronchial hyperresponsiveness in BN rats (chronic model); assay type: in vivo; settings: oral for 8 days
Procedure: (§1) Antigen-induced bronchial hyperresponsiveness in BN rats: Brown Norway (BN) rats (Charles River Japan) were actively sensitized by the intraperitoneal injection of 1 mL mixture containing aluminum hydroxide gel (1 mg) and ovalbumin (0.1 mg, OVA). Ten days later, antigen challenge was performed by the inhalation of an aerosolized 1% OVA solution for 30 min using an ultrasonic nebulizer. ACh was intravenously injected to rats 24 h after antigen challenge under sodium pentobarbital anesthesia (80 mg/kg, i.p.) by increasing doses of ACh every 5 min, then bronchoconstrictor response observed immediately after each ACh injection was measured by the method of Konzett & Rössler with some modifications. Briefly, trachea of rats was incised and a cannula was attached to lung side. An artificial respirator (SN-480-7, Shinano) was connected to the cannula, and then a fixed amount of air (tidal volume: 3 mL, ventilation frequency: 60 times/min) continuously insufflated to maintain respiration. The insufflation pressure overflowed from inhalation tube was monitored by a pressure transducer (TP-400T, Nihon Kohden) and recorded on a recorder (WT-645G, Nihon Kohden) through a carrier amplifier (AP-601G, Nihon Kohden). Test compounds were administered orally once 1 h before antigen challenge. The area under the curve (AUC) calculated from dose-response curve for ACh was compared between vehicle-treated control group and test compound-treated group, and then statistical significance was analyzed concerning inhibitory effect on bronchial hyperresponsiveness.
(§2) Antigen-induced bronchial hyperresponsiveness in BN rats: BN rats were actively sensitized by the intraperitoneal injection of a mixture containing aluminum hydroxide gel and ovalbumin. Twelve days later, antigen challenge was performed by the inhalation of an aerosolized 1% OVA solution or physiological saline for 30 min using an ultrasonic nebulizer (NE-U12, Omron). […] Inhibitory effect on bronchial hyperresponsiveness was evaluated 24 h after last antigen challenge by the method described in the section of Experimental Example 1.

BN rats [2] = assay: Antigen-induced airway inflammatory cell infiltration in BN rats (chronic model); assay type: in vivo; settings: oral for 8 days, 100 mg/kg, P<0.01
Procedure: as §2, with “Omron). To establish chronic bronchial hyerreactivity model, this procedure was repeated 3 times with 1-week intervals. Test compounds were administered orally for 8 days from the day of third antigen challenge. On the day of third antigen challenge, test compounds were administered 1 h before challenge.” for “Omron).”
(§3) Antigen-induced airway inflammatory cell infiltration in BN rats: After finishing experiment mentioned above, the lungs were washed 3 times with 5 mL of physiological saline through tracheal cannula using injection syringe. Then the cell number in the washing was determined. […] Differential cell counts were performed after May-Grünwald-Giemsa staining, and then statistical significance was analyzed concerning inhibitory effect on airway inflammatory cell infiltration as in the section of Experimental Example 2.

guinea pigs [3] = assay: Antigen-induced bronchial hyperresponsiveness in guinea pigs (acute model); assay type: in vivo; settings: oral 1 h before antigen challenge
Procedure: (§4) Antigen-induced bronchial hyperresponsiveness in guinea pigs: Guinea pigs (Charles River Japan) held in an exposure chamber were actively sensitized by the inhalation of an aerosolized 1% OVA solution for 10 min using an ultrasonic nebulizer (NE-U12, Omron) twice with an interval of 1 week. One week later, antigen challenge was performed by inhalation of an aerosolized 1% OVA generated by an ultrasonic nebulizer for 5 min. Test compounds were administered orally 1 h before antigen challenge. In addition, guinea pigs were treated with diphenhydramine (10 mg/kg, i.p.), an antihistamine, to protect the animals from anaphylactic death 10 min before antigen challenge. ACh was intravenously injected to guinea pigs 24 h after antigen challenge under urethane anesthesia (1.4 g/kg, i.p.) by increasing doses of ACh every 5 min, then bronchoconstrictor response observed immediately after each ACh injection was measured by the method of Konzett & Rössler with some modifications. Briefly, trachea of guinea pigs was incised and a cannula was attached to the lung side. An artificial respirator (SN-480-7, Shinano) was connected to the cannula, and then a fixed amount of air (tidal volume: 4 mL, ventilation frequency: 60 times/min) continuously insufflated to maintain respiration. The insufflation pressure overflowed from inhalation tube was monitored by a pressure transducer (TP-400T, Nihon Kohden) and recorded on a recorder (WT-645G, Nihon Kohden) through a carrier amplifier (AP-601G, Nihon Kohden). The area under the curve (AUC) calculated from dose-response curve for ACh was compared between vehicle-treated control group and test compound-treated group, and then statistical significance was analyzed concerning inhibitory effect on bronchial hyperresponsiveness.

guinea pigs [4] = assay: Antigen-induced airway inflammatory cell infiltration in guinea pigs (acute model); assay type: in vivo; settings: oral
Procedure: as §4, with “An artificial respirator (SN-480-7, Shinano) was connected to the cannula, and then a fixed amount of air (tidal volume: 4 mL, ventilation frequency: 60 times/min) continuously insufflated to maintain respiration.” left out
as §3, with “in guinea pigs:” for “in BN rats:”, “lungs are” for “lungs were”, “with 10” for “with 5”, “cell infiltration.” for “cell infiltration as in the section of Experimental Example 2.”

guinea pigs [5] = assay: Antigen-induced bronchial hyperresponsiveness in guinea pigs (chronic model); assay type: in vivo; settings: oral for 8 days, 30 mg/kg, P<0.05
Procedure: as §4, with “An artificial respirator (SN-480-7, Shinano) was connected to the cannula, and then a fixed amount of air (tidal volume: 4 mL, ventilation frequency: 60 times/min) continuously insufflated to maintain respiration.” left out, “The area under the curve (AUC) calculated from dose-response curve for ACh was compared between vehicle-treated control group and test compound-treated group, and then statistical significance was analyzed concerning inhibitory effect on bronchial hyperresponsiveness.” left out

guinea pigs [6] = assay: Antigen-induced airway inflammatory cell infiltration in guinea pigs (chronic model); assay type: in vivo; settings: oral for 8 days, 30 mg/kg, P<0.01
Procedure: (§5) Antigen-induced bronchial hyperresponsiveness in guinea pigs: Guinea pigs held in an exposure chamber were actively sensitized by the inhalation of an aerosolized 1% OVA solution for 10 min using an ultrasonic nebulizer (NE-U12, Omron) twice with an interval of 1 week. One week and 2 weeks later, antigen challenge was performed twice by inhalation of an aerosolized 1% OVA generated by an ultrasonic nebulizer for 5 min. Test compounds were administered orally for 8 days from the day of first antigen challenge. On the day of each antigen challenge, test compounds were administered 1 h before challenge. […] Inhibitory effect on bronchial hyperresponsiveness was evaluated 24 h after last antigen challenge by the method described in the section of Experimental Example 7. The area under the curve (AUC) calculated from dose-response curve for ACh was compared between vehicle-treated control group and test compound-treated group, and then statistical significance was analyzed concerning inhibitory effect on bronchial hyperresponsiveness.
Antigen-induced airway inflammatory cell infiltration in guinea pigs: After finishing experiment mentioned above, the lungs are washed 3 times with 10 mL of physiological saline through tracheal cannula using injection syringe. Then the cell number in the washing was determined. […]

guinea pigs [7] = assay: Antigen-induced mucus secretion in guinea pigs (chronic model); assay type: in vivo; settings: oral for 8 days, 30 mg/kg, P<0.01
Procedure: as §5
Antigen-induced mucus secretion in guinea pigs: After measurement of bronchial hyperresponsiveness, the lungs are washed 3 times with 10 mL of physiological saline through tracheal cannula using injection syringe, and then the washing was centrifuged. […] Statistical significance was analyzed concerning inhibitory effect on mucus secretion.

BN rats [8] = assay: Antigen-induced bronchial hyperresponsiveness in BN rats (acute model); assay type: in vivo, Brown Norway (BN) rats; settings: oral once 1 h before antigen challenge, 10 mg/kg, P<0.01
Procedure: as §1, with “An artificial respirator (SN-480-7, Shinano) was connected to the cannula, and then a fixed amount of air (tidal volume: 3 mL, ventilation frequency: 60 times/min) continuously insufflated to maintain respiration.” left out, “Test compounds were administered orally once 1 h before antigen challenge.” left out

BN rats [9] = assay: Antigen-induced airway inflammatory cell infiltration in BN rats (acute model); assay type: in vivo, Brown Norway (BN) rats; settings: oral, P<0.01
Procedure: as §1, with “An artificial respirator (SN-480-7, Shinano) was connected to the cannula, and then a fixed amount of air (tidal volume: 3 mL, ventilation frequency: 60 times/min) continuously insufflated to maintain respiration.” left out, “Test compounds were administered orally once 1 h before antigen challenge.” left out, “hyperresponsiveness. […]” for “hyperresponsiveness.”

BN rats [10] = assay: Antigen-induced mucus secretion in BN rats (acute model); assay type: in vivo, Brown Norway (BN) rats; settings: oral, 10 mg/kg, P<0.01
Procedure: as §1, with “An artificial respirator (SN-480-7, Shinano) was connected to the cannula, and then a fixed amount of air (tidal volume: 3 mL, ventilation frequency: 60 times/min) continuously insufflated to maintain respiration.” left out, “Test compounds were administered orally once 1 h before antigen challenge.” left out, “hyperresponsiveness. […]” for “hyperresponsiveness.”

guinea pigs [11] = assay: Bronchodilating effect in guinea pigs (ACh-induced bronchoconstriction); assay type: in vivo; settings: oral 1 h before ACh injection, 10 mg/kg, P<0.01
Procedure: Under urethane anesthesia (1.4 g/kg, i.p.), ACh was intravenously injected to guinea pigs by increasing doses of ACh every 5 min, then bronchoconstrictor response observed immediately after each ACh injection was measured by the method of Konzett & Rössler with some modifications. Briefly, trachea of guinea pigs was incised and a cannula was attached to the lung side. An artificial respirator (SN-480-7, Shinano) was connected to the cannula, and then a fixed amount of air (tidal volume: 4 mL, ventilation frequency: 60 times/min) continuously insufflated to maintain respiration. The insufflation pressure overflowed from inhalation tube was monitored by a pressure transducer (TP-400T, Nihon Kohden) and recorded on a recorder (WT-645G, Nihon Kohden) through a carrier amplifier (AP-601G, Nihon Kohden). Test compounds were administered orally 1 h before ACh injection, then the effect on the dose-response curve of ACh was examined. Statistical significance was analyzed concerning broncohdilating effect in guinea pigs.

CSC(=S)N1CC2(CCCCC2)CS/C1=N\c1ccc(OC(F)(F)F)cc1 [Compound I-12]
significant effect: inhibitory effect on bronchial hyperresponsiveness (BN rats [1]; 30 mg/kg, P<0.01) | inhibitory effect on bronchial hyperresponsiveness (BN rats [1]; 100 mg/kg, P<0.05) | inhibitory effect on airway inflammatory cell infiltration (BN rats [2]) | inhibitory effect on bronchial hyperresponsiveness (AUC of ACh dose-response curve vs vehicle) (guinea pigs [3]; 10 mg/kg, P<0.05) | inhibitory effect on airway inflammatory cell infiltration (guinea pigs [4]; 10 mg/kg, P<0.05) | inhibitory effect on bronchial hyperresponsiveness (AUC of ACh dose-response curve vs vehicle) (guinea pigs [5]) | inhibitory effect on airway inflammatory cell infiltration (guinea pigs [6]) | inhibitory effect on mucus secretion (mucin levels in lung washing) (guinea pigs [7])

CCCCn1c2c(cc(C(=O)NC(C)(C)c3ccccc3)c1=O)CCCCCC2 [Compound 4-320]
significant effect: inhibitory effect on bronchial hyperresponsiveness (AUC of ACh dose-response curve vs vehicle) (BN rats [8]) | inhibitory effect on airway inflammatory cell infiltration (BN rats [9]; 1 mg/kg) | inhibitory effect on airway inflammatory cell infiltration (BN rats [9]; 10 mg/kg) | inhibitory effect on mucus secretion (mucin levels in lung washing) (BN rats [10]) | inhibitory effect on bronchial hyperresponsiveness (BN rats [1]; 3 mg/kg, P<0.01) | inhibitory effect on bronchial hyperresponsiveness (AUC of ACh dose-response curve vs vehicle) (guinea pigs [3]; 1 mg/kg, P<0.01) | inhibitory effect on bronchial hyperresponsiveness (AUC of ACh dose-response curve vs vehicle) (guinea pigs [3]; 10 mg/kg, P<0.05) | inhibitory effect on airway inflammatory cell infiltration (guinea pigs [4]; 1 mg/kg, P<0.05) | inhibitory effect on airway inflammatory cell infiltration (guinea pigs [4]; 10 mg/kg, P<0.01) | bronchodilating effect (effect on the dose-response curve of ACh) (guinea pigs [11])

Source: patent publication US20070027144A1, “Novel use of cannabinoid receptor agonist” (SHIONOGI & CO., LTD., priority 2003, published 2007)
